Reference: patent US7335686B2, “Method and composition for treating osteoporosis” (Council of Scientific and Industrial Research, priority 2003, dated 2008)

System: osteoclast precursors (murine bone marrow cells)
Assay: In vitro osteoclastogenesis assay (M-CSF + RANKL, TRAP staining)
Type: cell-based, Balb/c mice
Conditions: M-CSF and RANKL, TRAP-positive osteoclasts
Description: Mice were sacrificed by cervical dislocation and femora and tibiae were aseptically removed and dissected free of adherent soft tissues. The bone ends were cut, and the marrow cavity was flushed out with medium MEM from one end of the bone using a sterile 21-gauge needle. The bone marrow suspension was carefully agitated with a plastic Pasteur pipette to obtain a single-cell suspension. The cells were washed twice and resuspended (10^6 cells/ml) in αMEM containing 10% FBS. […] After 24 h, nonadherent cells were harvested and layered on a Ficoll-Hypaque gradient. Cells at the gradient interface were collected, washed and resuspended (5×10^5/ml) in αMEM containing 10% FBS. In this study, we called these stromal cell-free, M-CSF-dependent, nonadherent cells as osteoclast precursors. These osteoclast precursors were added to 96-well plates (100 μl/well) containing plastic coverslips. […] Cultures were fed every 2-3 days and after incubation for 6 days osteoclast formation was evaluated by tartrate-resistant acid phosphatase (TRAP) staining. The number of TRAP-positive multinucleated cells (MNCs) containing 3 or more nuclei was scored.
TRAP is preferentially expressed at high levels in osteoclast and is considered, especially in the mouse, to be an osteoclast marker. […] Only those cells that were strongly TRAP-positive (dark red) counted by light microscopy.

Compound: O=C([O-])CC[C@H](NS(=O)(=O)[O-])C(=O)[O-].O=C([O-])CC[C@H](NS(=O)(=O)[O-])C(=O)[O-].[Ca+2].[Ca+2].[Ca+2] [compound 1, L-glutamyl-N-sulphonic acid, Ca salt]
- Effect on RANKL-induced osteoclast formation/differentiation (in words): dose dependent inhibition

Compound: O=C(O)C[C@H](NS(=O)(=O)O)C(=O)O [example 3, L-aspartyl, N-sulfonic acid]
- Effect on RANKL-induced osteoclast formation/differentiation (in words): significantly inhibited osteoclast formation
